≈ marks a conversion by molar mass, not a printed value.
What was measured:
[1] = system: Human alphaherpesvirus 3; experiment: Antiviral activity against thymidine kinase-positive Human herpesvirus 3 infected in HEL cells assessed as inhibition of viral plaque formation; type: functional, organism-based; conditions: Human alphaherpesvirus 3, HEL
[2] = system: Human immunodeficiency virus 1; experiment: Antiviral activity against Human immunodeficiency virus 1 IIIB infected human MT4 cells assessed as inhibition of virus-induced cytopathic effect after 4 days by MTT assay; type: functional, organism-based; conditions: MT4, 96 h
[3] = system: Staphylococcus aureus; experiment: Antimicrobial activity against Staphylococcus aureus after 24 hr by serial dilution method; type: functional
[4] = Octanol-water partition coefficient, log P of the compound; type: physicochemical
[5] = system: Human betaherpesvirus 5; experiment: Antiviral activity against Human herpesvirus 5 Davis infected human HEL cells assessed as reduction in the virus plaque formation; type: functional, organism-based; conditions: Human betaherpesvirus 5, Davis
[6] = system: Human immunodeficiency virus 2; experiment: Antiviral activity against Human immunodeficiency virus type 2 (ISOLATE ROD) infected human MT4 cells assessed as inhibition of virus-induced cytopathic effect after 4 days by MTT assay; type: functional, organism-based; conditions: Human immunodeficiency virus 2, ISOLATE ROD, MT4, 96 h
[7] = system: Human betaherpesvirus 5; experiment: Antiviral activity against Human herpesvirus 5 strain AD169 infected human HEL cells assessed as reduction in the virus plaque formation; type: functional, organism-based; conditions: Human betaherpesvirus 5, AD169, HEL
[8] = Cytotoxicity against Homo sapiens (human) MT4 cells after 4 days by MTT assay; type: cell-based
[9] = Cytotoxicity against HEL assessed as minimum concentration required to cause morphological changes; type: cell-based; conditions: human, HEL cells
[10] = system: Aspergillus niger; experiment: Antimicrobial activity against Aspergillus niger after 7 days by serial dilution method; type: functional
[11] = system: Escherichia coli; experiment: Antimicrobial activity against Escherichia coli after 24 hr by serial dilution method; type: functional
[12] = system: Human alphaherpesvirus 3; experiment: Antiviral activity against thymidine kinase-deficient Human herpesvirus 3 infected in HEL cells assessed as inhibition of viral plaque formation; type: functional, organism-based; conditions: Human alphaherpesvirus 3, HEL
[13] = system: Candida albicans; experiment: Antimicrobial activity against Candida albicans after 2 days by serial dilution method; type: functional
[14] = Cytotoxicity against HEL; type: cell-based; conditions: human, HEL cells
[15] = system: Bacillus subtilis; experiment: Antimicrobial activity against Bacillus subtilis after 24 hr by serial dilution method; type: functional

Row | Structure (SMILES) | EC50 [1] [µg/mL] | logP [4] | EC50 [5] [µg/mL] | EC50 [7] [µg/mL] | EC50 [12] [µg/mL] | EC50 [2] [µg/mL] | -logMIC [3] | EC50 [6] [µg/mL] | CC50 at 96 h [8] [µg/mL] | MCC [9] [µg/mL] | -logMIC [10] | -logMIC [11] | -logMIC [13] | CC50 [14] [µg/mL] | -logMIC [15]
1 | O=C(COc1cccc2ccccc12)N/N=C/c1ccccc1 | > 20 | 4.02 | > 20 | > 20 | > 20 | > 96.6 | 0.78 | > 96.6 | ≥ 96.6 | 100 | 0.78 | 0.78 | 0.78 | 64.5 (≈ 212 µM) | 0.78
2 | O=C(COc1cccc2ccccc12)N/N=C/c1ccccc1O | > 0.8 | 3.73 | > 4 | > 4 | > 0.8 | > 5.19 | 1.71 | > 5.19 | 5.19 (≈ 16.2 µM) | 20 | 1.11 | 1.41 | 1.41 | 3.57 (≈ 11.1 µM) | 1.11
3 | O=C(COc1cccc2ccccc12)N/N=C/c1ccc(O)cc1 | 9.6 (≈ 30 µM) | 3.73 | > 4 | > 4 | 10.5 (≈ 32.8 µM) | > 26.5 | 1.71 | > 26.5 | 26.5 (≈ 82.7 µM) | 20 | 1.11 | 1.41 | 1.71 | 60.6 (≈ 189 µM) | 1.11
4 | COc1ccc(/C=N/NC(=O)COc2cccc3ccccc23)cc1 | > 4 | 3.77 | > 4 | > 4 | > 4 | > 76.9 | 0.82 | > 76.9 | 76.9 (≈ 230 µM) | 20 | 0.82 | 0.82 | 0.82 | 100 (≈ 299 µM) | 0.82
5 | COc1ccc(/C=N/NC(=O)COc2cccc3ccccc23)cc1OC | > 4 | 3.51 | > 20 | > 4 | > 20 | > 14.6 | 1.46 | > 14.6 | 14.7 (≈ 40.2 µM) | ≥ 20 | 1.46 | 1.46 | 1.46 | 52.6 (≈ 144 µM) | 1.16
6 | COc1cc(/C=N/NC(=O)COc2cccc3ccccc23)cc(OC)c1OC | 12.5 (≈ 31.7 µM) | 3.26 | > 20 | > 4 | 17.4 (≈ 44.1 µM) | > 13.4 | 1.8 | > 13.4 | 13.4 (≈ 34 µM) | ≥ 20 | 1.5 | 1.5 | 1.5 | 47.9 (≈ 121 µM) | 1.5
7 | O=C(COc1cccc2ccccc12)N/N=C/c1cccc(Cl)c1 | > 100 | 4.54 | > 20 | > 20 | > 100 | > 89.9 | 0.83 | > 89.9 | 89.9 (≈ 265 µM) | 100 | 0.53 | 0.53 | 0.53 | 58.6 (≈ 173 µM) | 0.53
8 | O=C(COc1cccc2ccccc12)N/N=C/c1ccc(Cl)cc1 | > 100 | 4.54 | > 20 | > 20 | > 100 | > 87.6 | 1.43 | > 87.6 | 87.6 (≈ 259 µM) | 100 | 0.53 | 0.53 | 0.53 | 100 (≈ 295 µM) | 0.53
9 | O=C(COc1cccc2ccccc12)N/N=C/c1ccccc1Br | > 4 | 4.81 | > 20 | > 4 | > 4 | > 11.4 | 1.19 | > 11.4 | 11.4 (≈ 29.8 µM) | ≥ 20 | 0.88 | 0.88 | 0.88 | 100 (≈ 261 µM) | 0.88
10 | O=C(COc1cccc2ccccc12)N/N=C/c1cccc(Br)c1 | > 20 | 4.81 | > 20 | > 20 | > 20 | > 87.4 | 1.79 | > 87.4 | 87.4 (≈ 228 µM) | 100 | 0.58 | 0.58 | 0.58 | 48.6 (≈ 127 µM) | 0.58
11 | O=C(COc1cccc2ccccc12)N/N=C/c1ccc(F)cc1 | > 20 | 4.16 | > 20 | > 20 | > 20 | > 65 | 1.41 | > 65 | 65 (≈ 202 µM) | 100 | 0.81 | 1.41 | 0.81 | 71.6 (≈ 222 µM) | 1.11
12 | O=C(COc1cccc2ccccc12)N/N=C/c1ccccc1[N+](=O)[O-] | > 4 | 3.97 | > 4 | > 4 | > 4 | > 12.2 | 1.45 | > 12.2 | 12.2 (≈ 34.9 µM) | 20 | 1.45 | 1.45 | 1.45 | 100 (≈ 286 µM) | 1.14
13 | O=C(COc1cccc2ccccc12)N/N=C/c1cccc([N+](=O)[O-])c1 | > 4 | 3.97 | > 20 | > 4 | > 4 | > 12.1 | 1.14 | > 12.1 | 12.1 (≈ 34.6 µM) | ≥ 20 | 0.84 | 1.45 | 1.45 | 61.2 (≈ 175 µM) | 1.14

Further lines, with some results ahead:

Row | EC50 [1] [µg/mL] | logP [4] | EC50 [5] [µg/mL] | EC50 [7] [µg/mL] | EC50 [12] [µg/mL] | Structure (SMILES) | EC50 [2] [µg/mL] | -logMIC [3] | EC50 [6] [µg/mL] | CC50 at 96 h [8] [µg/mL] | MCC [9] [µg/mL] | -logMIC [10] | -logMIC [11] | -logMIC [13] | CC50 [14] [µg/mL] | -logMIC [15]
14 | 9.2 (≈ 28.7 µM) | 3.73 | > 20 | > 20 | 16.2 (≈ 50.6 µM) | O=C(COc1cccc2ccccc12)N/N=C/c1cccc(O)c1 | > 32.6 | 1.71 | > 32.6 | 32.6 (≈ 102 µM) | 100 | 1.41 | 1.41 | 1.41 | 62.7 (≈ 196 µM) | 1.11
15 | > 4 | 3.51 | > 20 | > 4 | > 20 | COc1ccc(OC)c(/C=N/NC(=O)COc2cccc3ccccc23)c1 | > 19.2 | 1.16 | > 19.2 | 19.2 (≈ 52.8 µM) | ≥ 20 | 1.46 | 1.46 | 1.46 | 56.9 (≈ 156 µM) | 1.16
16 | 13.8 (≈ 39.4 µM) | 3.48 | > 20 | > 20 | 20 (≈ 57.1 µM) | COc1ccc(/C=N/NC(=O)COc2cccc3ccccc23)cc1O | > 7.05 | 1.15 | > 7.05 | 7.05 (≈ 20.1 µM) | 100 | 1.15 | 1.45 | 1.15 | 27.7 (≈ 79.1 µM) | 1.45
17 | > 20 | 4.54 | > 20 | > 20 | > 20 | O=C(COc1cccc2ccccc12)N/N=C/c1ccccc1Cl | > 56.2 | 1.13 | > 56.2 | 56.2 (≈ 166 µM) | 100 | 0.83 | 0.83 | 0.83 | 62.7 (≈ 185 µM) | 0.83
18 | > 100 | 4.81 | > 100 | > 100 | > 100 | O=C(COc1cccc2ccccc12)N/N=C/c1ccc(Br)cc1 | > 106 | 0.58 | > 106 | 106 (≈ 278 µM) | > 100 | 0.58 | 0.58 | 0.58 | 100 (≈ 261 µM) | 0.58
19 | > 4 | 3.97 | > 4 | > 4 | > 4 | O=C(COc1cccc2ccccc12)N/N=C/c1ccc([N+](=O)[O-])cc1 | > 87.8 | 0.84 | > 87.8 | 87.8 (≈ 251 µM) | 20 | 0.54 | 0.84 | 1.45 | 14.2 (≈ 40.6 µM) | 1.14

— ChEMBL document CHEMBL3045401, “(Naphthalen-1-yloxy)-acetic acid benzylidene/(1-phenyl-ethylidene)-hydrazide derivatives: synthesis, antimicrobial evaluation, and QSAR studies” (Med Chem Res, 2012)
